15 compounds from patent publication US20240398805A1, “QUINAZOLINE DERIVED COMPOUNDS AS EGFR INHIBITORS AND THEIR USES THEREOF” (ACCUTAR BIOTECHNOLOGY INC., priority 2021, published 2024) can be followed below.

What all share (type): cell-based
For assay [1], the system named is HCC827 cells. Briefly: Cell growth inhibition (CellTiter-Glo, 3 days) in HCC827. The settings on record: Homo sapiens, 72 h, 3 days after administration. How it is done:
(§1) 2. Cell Growth Inhibition for HCC827, HCC827-SVD, HCC827-ASV, HCC827-YVMA and A431.
(§2) HCC827(ATCC), HCC827-SVD, HCC827-ASV, HCC827-YVMA were seeded in 96-well plates at 5000 cells/well in 90 μl of RPMI growth medium containing 10% FBS and 1% Penicillin Streptomycin. A431 (ATCC) cells were seed in 96-well plates at 5000 cells/well in 90 μl of DMEM growth medium containing 10% FBS and 1% Penicillin Streptomycin. Cells were incubated at 3700 overnight. The following day, the test compound was administered to the cells by using 1 Ox compound stock solution prepared in growth medium at various concentrations. After administration of the compound, cells were then incubated at 3700 for 3 days. Before CeIlTiter-Glo assay, the plates were equilibrated at room temperature for approximately 10 minutes. 100 ul of CelTiter-Glo® Reagent (Promega) was added to each well. The plates were then incubated at room temperature for 10 minutes and luminescence was recorded by EnSpire plate reader (PerkinElmer).
Background: In ATP-based viability assays light output follows the ATP content of the culture.

The subject of assay [2] is HCC827-SVD cells (human EGFR exon 20 insertion mutant D770_N771 insSVD). Briefly: Cell growth inhibition (CellTiter-Glo, 3 days) in HCC827-SVD. To be noted: 72 h, 3 days after administration. How it is done:
(§3) 1. Preparation of HCC827-SVD, HCC827-ASV and HCC827-YVMA Cell Lines
HCC827-SVD cell line were generated by first transducing HCC827 cells (ATCC) with lentiviral particles expressing codon-optimized human EGFR exon 20 insertion mutant D770_N771 insSVD, and then selecting under 5 μg/ml purimycin treatment for a week.
The resulting cells were further transduced with lentiviral particles carrying EGFR sgRNA and CAS9 to knockout the endogenous alleles of EGFR, and then selected under 500 μg/ml hygromycin B treatment for two weeks. Single clone was subsequently generated by limiting dilution approach. Endogenous EGFR knockout was confirmed by Sanger sequencing of cell genomic DNA and expression of exogenous mutant EGFR was verified by Western blot analysis.
as §1, §2

The subject of assay [3] is HCC827-ASV cells (human EGFR exon 20 insertion mutant A769_D770insASV). Briefly: Cell growth inhibition (CellTiter-Glo, 3 days) in HCC827-ASV. To be noted: 72 h, 3 days after administration.
From the text: as §3
(§4) HCC827-ASV and HCC827-YVMA cell lines were generated in the similar approach as HCC827-SVD except that HCC827 cells (ATCC) were first transduced with lentiviral particles expressing codon-optimized human EGFR exon 20 insertion mutant A769_D770insASV and human ERBB2 exon20 insertion mutant A775_G776ins YVMA, respectively.
as §1, §2

In assay [4] the test system is HCC827-YVMA cells (human ERBB2 exon20 insertion mutant A775_G776ins YVMA). Briefly: Cell growth inhibition (CellTiter-Glo, 3 days) in HCC827-YVMA. The settings on record: 72 h, 3 days after administration.
From the text: as §3, §4, §1, §2

Assay [5] relates to A431 cells. Briefly: Cell growth inhibition (CellTiter-Glo, 3 days) in A431. The settings on record: Homo sapiens, A-431, 72 h, 3 days after administration. Here is the method: as §1, §2

Usually GI50 stands for the concentration giving 50% growth inhibition. A low value points to greater sensitivity of the cells. As for `C=CC(=O)N1CCC(Nc2cc3c(Nc4ccc(Oc5ccnc(N6CC(OC)C6)c5)cc4F)ncnc3cc2OC)CC1` [Example 119, 1-(4-((4-((2-fluoro-4-((2-(3-methoxyazetidin-1-yl)pyridin-4-yl)oxy)phenyl)amino)-7-methoxyquinazolin-6-yl)amino)piperidin-1-yl)prop-2-en-1-one], the GI50 in assay [1] is 300 to 600 nM; in assay [2] it was 100 to 300 nM; in assay [3], 60 to 100 nM; in assay [4], 100 to 300 nM; in assay [5], 100 to 300 nM.

`C=CC(=O)N1CCC(Nc2cc3c(Nc4ccc(Oc5ccnc(-c6nnc(C)o6)c5)cc4F)ncnc3cc2OC)CC1` [Compound 193, 1-(4-((4-((2-fluoro-4-((2-(5-methyl-1,3,4-oxadiazol-2-yl)pyridin-4-yl)oxy)phenyl)amino)-7-methoxyquinazolin-6-yl)amino)piperidin-1-yl)prop-2-en-1-one]: the GI50 in assay [1] is 100 to 300 nM; in assay [2], < 30 nM; in assay [3] it was < 30 nM; in assay [4] it was < 30 nM; in assay [5], ≥ 1000 nM.

With `C=CC(=O)N1CCC(Nc2cc3c(Nc4ccc(Oc5ccnc(N6CCN(C)CC6)c5)c(Cl)c4)ncnc3cc2OC)CC1` [Example 228, 1-(4-((4-((3-chloro-4-((2-(4-methylpiperazin-1-yl)pyridin-4-yl)oxy)phenyl)amino)-7-methoxyquinazolin-6-yl)amino)piperidin-1-yl)prop-2-en-1-one], the GI50 in assay [1] was 300 to 600 nM; in assay [2] it was 100 to 300 nM; in assay [3], 60 to 100 nM; in assay [4], 60 to 100 nM; in assay [5] it was ≥ 1000 nM.

For `C=CC(=O)N1CCC(Nc2cc3c(Nc4ccc(Oc5ccnc(N6CC(NC(C)=O)C6)c5)cc4F)ncnc3cc2OC)CC1` [Example 145, N-(1-(4-(4-((6-((1-acryloylpiperidin-4-yl)amino)-7-methoxyquinazolin-4-yl)amino)-3-fluorophenoxy)pyridin-2-yl)azetidin-3-yl)acetamide], the GI50 in assay [1], in assay [2], in assay [3], in assay [4] and in assay [5] was ≥ 1000 nM throughout.

In the case of `C=CC(=O)N1CCC(Nc2cc3c(Nc4ccc(Oc5ccnc(N6CC[C@H](C)C6)c5)cc4F)ncnc3cc2OC)CC1` [Example 198, (S)-1-(4-((4-((2-fluoro-4-((2-(3-methylpyrrolidin-1-yl)pyridin-4-yl)oxy)phenyl)amino)-7-methoxyquinazolin-6-yl)amino)piperidin-1-yl)prop-2-en-1-one], the GI50 in assay [1] is 30 to 60 nM; in assay [2], < 30 nM; in assay [3] it was < 30 nM; in assay [4], < 30 nM; in assay [5] it was 600 to 1000 nM.

Consider `C=CC(=O)N1CCC(Nc2cc3c(Nc4ccc(Oc5cc(N6C[C@@H](C)O[C@@H](C)C6)ncc5Cl)cc4F)ncnc3cc2OC)CC1` [Example 108, 1-(4-((4-((4-((5-chloro-2-((2R,6S)-2,6-dimethylmorpholino)pyridin-4-yl)oxy)-2-fluorophenyl)amino)-7-methoxyquinazolin-6-yl)amino)piperidin-1-yl)prop-2-en-1-one], for which the GI50 in assay [1] is 300 to 600 nM; in assay [2] it was 300 to 600 nM; in assay [3], 100 to 300 nM; in assay [4] it was 100 to 300 nM; in assay [5], ≥ 1000 nM.

For the compound `C=CC(=O)N1CCC(Nc2cc3c(Nc4ccc(Oc5ccnc(N6CCN(C(C)C)CC6)c5)cc4F)ncnc3cc2OC)CC1` [Example 187, 1-(4-((4-((2-fluoro-4-((2-(4-isopropylpiperazin-1-yl)pyridin-4-yl)oxy)phenyl)amino)-7-methoxyquinazolin-6-yl)amino)piperidin-1-yl)prop-2-en-1-one], the GI50 in assay [1] is ≥ 1000 nM; in assay [2], 100 to 300 nM; in assay [3] it was 100 to 300 nM; in assay [4], 300 to 600 nM; in assay [5], ≥ 1000 nM.

With `C=CC(=O)N1CCC(Nc2cc3c(Nc4ccc(Oc5ccn(-c6nc(OC)nc(OC)n6)n5)cc4F)ncnc3cc2OC)CC1` [Compound 31, 1-(4-((4-((4-((1-(4,6-dimethoxy-1,3,5-triazin-2-yl)-1H-pyrazol-3-yl)oxy)-2-fluorophenyl)amino)-7-methoxyquinazolin-6-yl)amino)piperidin-1-yl)prop-2-en-1-one], the GI50 is < 30 nM in assay [1]; 30 to 60 nM in assay [2]; 30 to 60 nM in assay [3]; < 30 nM in assay [4]; < 30 nM in assay [5].

Regarding `C=CC(=O)N1CCC(Nc2cc3c(Nc4ccc(Oc5ccnc(N6CCCC(F)(F)C6)c5)cc4F)ncnc3cc2OC)CC1` [Example 219, 1-(4-((4-((4-((2-(3,3-difluoropiperidin-1-yl)pyridin-4-yl)oxy)-2-fluorophenyl)amino)-7-methoxyquinazolin-6-yl)amino)piperidin-1-yl)prop-2-en-1-one], the GI50 in assay [1] was 100 to 300 nM; in assay [2], < 30 nM; in assay [3], < 30 nM; in assay [4], < 30 nM; in assay [5], 300 to 600 nM.

For the compound `C=CC(=O)N1CCC(Nc2cc3c(Nc4ccc(Oc5ccnc(N6CCC[C@H](C)C6)c5)cc4F)ncnc3cc2OC)CC1` [Example 222, (S)-1-(4-((4-((2-fluoro-4-((2-(3-methylpiperidin-1-yl)pyridin-4-yl)oxy)phenyl)amino)-7-methoxyquinazolin-6-yl)amino)piperidin-1-yl)prop-2-en-1-one], the GI50 in assay [1] is 60 to 100 nM; in assay [2] it was < 30 nM; in assay [3] it was < 30 nM; in assay [4] it was < 30 nM; in assay [5] it was 600 to 1000 nM.

Regarding `C=CC(=O)N1CCC(Nc2cc3c(Nc4ccc(Oc5ncc(N6C[C@@H](C)O[C@@H](C)C6)cn5)cc4F)ncnc3cc2OC)CC1` [Example 110, 1-(4-((4-((4-((5-((2R,6S)-2,6-dimethylmorpholino)pyrimidin-2-yl)oxy)-2-fluorophenyl)amino)-7-methoxyquinazolin-6-yl)amino)piperidin-1-yl)prop-2-en-1-one], the GI50 in assay [1] is < 30 nM; in assay [2], ≥ 1000 nM; in assay [3] it was ≥ 1000 nM; in assay [4], ≥ 1000 nM; in assay [5], 100 to 300 nM.

As to `C=CC(=O)N1CCC(Nc2cc3c(Nc4ccc(Oc5ccnc(N6CC7C(C6)C7(F)F)c5)cc4F)ncnc3cc2OC)CC1` (stereo not shown) [Example 160, 1-(4-((4-((4-((2-(6,6-difluoro-3-azabicyclo[3.1.0]hexan-3-yl)pyridin-4-yl)oxy)-2-fluorophenyl)amino)-7-methoxyquinazolin-6-yl)amino)piperidin-1-yl)prop-2-en-1-one], the GI50 in assay [1] is 30 to 60 nM; in assay [2], < 30 nM; in assay [3] it was < 30 nM; in assay [4], < 30 nM; in assay [5] it was 60 to 100 nM.

On to `C=CC(=O)N1CCC(Nc2cc3c(Nc4ccc(Oc5ccn(-c6cnc(C)nc6)n5)cc4F)ncnc3cc2OC)CC1` [Example 92, 1-(4-((4-((2-fluoro-4-((1-(2-methylpyrimidin-5-yl)-1H-pyrazol-3-yl)oxy)phenyl)amino)-7-methoxyquinazolin-6-yl)amino)piperidin-1-yl)prop-2-en-1-one], for which the GI50 in assay [1] is 60 to 100 nM; in assay [2], < 30 nM; in assay [3], < 30 nM; in assay [4] it was < 30 nM; in assay [5], 100 to 300 nM.

In the case of `[2H]C([2H])([2H])Oc1cc2ncnc(Nc3ccc(Oc4nc(-c5ccc(C)nc5)cs4)cc3F)c2cc1NC1CCN(C(=O)C=C)CC1` [Compound 87, 1-(4-((4-((2-fluoro-4-((4-(6-methylpyridin-3-yl)thiazol-2-yl)oxy)phenyl)amino)-7-(methoxy-d3)quinazolin-6-yl)amino)piperidin-1-yl)prop-2-en-1-one], the GI50 is 100 to 300 nM in assay [1]; 30 to 60 nM in assay [2]; 60 to 100 nM in assay [3]; 30 to 60 nM in assay [4]; 100 to 300 nM in assay [5].

`C=CC(=O)N1CC[C@H](Oc2cc3c(Nc4ccc(Oc5ccn(-c6cnc(OC)nc6)n5)cc4F)ncnc3cc2OC)C1` [Compound 81, (S)-1-(3-((4-((2-fluoro-4-((1-(2-methoxypyrimidin-5-yl)-1H-pyrazol-3-yl)oxy)phenyl)amino)-7-methoxyquinazolin-6-yl)oxy)pyrrolidin-1-yl) prop-2-en-1-one]: the concentration for 50% growth inhibition (GI50) in assay [1] is 300 to 600 nM; in assay [2], 100 to 300 nM; in assay [5] it was 300 to 600 nM.
